# Test results reported in publication doi:10.1101/2021.02.21.432137v1 (biorxiv, 2021).
# Experiments:
# Settings in all cases: binder
# [1] = target: LRRK2 (G2019S) (Homo sapiens, UniProt Q5S007, G2019S)
# [2] = target: T1, JAK3 (Homo sapiens, UniProt P52333)
# T1 sequence (P52333 1-1124): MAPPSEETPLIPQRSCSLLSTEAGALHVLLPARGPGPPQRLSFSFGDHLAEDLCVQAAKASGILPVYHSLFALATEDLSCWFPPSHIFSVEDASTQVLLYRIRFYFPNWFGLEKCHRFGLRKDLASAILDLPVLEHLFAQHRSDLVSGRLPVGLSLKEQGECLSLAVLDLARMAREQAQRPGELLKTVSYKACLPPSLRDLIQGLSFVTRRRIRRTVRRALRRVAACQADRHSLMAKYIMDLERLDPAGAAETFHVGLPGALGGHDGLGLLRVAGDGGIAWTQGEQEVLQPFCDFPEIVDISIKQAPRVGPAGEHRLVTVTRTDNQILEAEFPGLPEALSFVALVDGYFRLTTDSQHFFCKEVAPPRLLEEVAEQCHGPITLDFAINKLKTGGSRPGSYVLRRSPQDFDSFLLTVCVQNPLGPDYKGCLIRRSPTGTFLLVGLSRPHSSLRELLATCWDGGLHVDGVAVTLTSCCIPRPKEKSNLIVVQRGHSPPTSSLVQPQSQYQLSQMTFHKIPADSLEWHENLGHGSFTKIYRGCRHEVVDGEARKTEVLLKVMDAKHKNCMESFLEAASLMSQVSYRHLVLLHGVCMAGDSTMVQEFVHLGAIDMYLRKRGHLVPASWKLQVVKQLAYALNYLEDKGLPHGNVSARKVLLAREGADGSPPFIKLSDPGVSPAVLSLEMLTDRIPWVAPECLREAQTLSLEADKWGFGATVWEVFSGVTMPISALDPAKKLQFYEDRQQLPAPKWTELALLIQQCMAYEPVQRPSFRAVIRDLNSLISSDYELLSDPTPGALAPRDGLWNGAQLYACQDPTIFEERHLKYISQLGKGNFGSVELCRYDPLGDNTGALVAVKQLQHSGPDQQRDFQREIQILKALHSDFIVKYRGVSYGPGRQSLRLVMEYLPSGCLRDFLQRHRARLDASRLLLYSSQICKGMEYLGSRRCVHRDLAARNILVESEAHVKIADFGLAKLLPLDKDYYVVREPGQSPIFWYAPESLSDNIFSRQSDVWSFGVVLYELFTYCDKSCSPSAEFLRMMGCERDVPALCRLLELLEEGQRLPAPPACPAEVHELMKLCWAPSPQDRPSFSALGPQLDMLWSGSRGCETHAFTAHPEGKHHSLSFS
# [3] = target: T2, NUAK2 (Homo sapiens, UniProt Q9H093)
# T2 sequence (Q9H093 1-628): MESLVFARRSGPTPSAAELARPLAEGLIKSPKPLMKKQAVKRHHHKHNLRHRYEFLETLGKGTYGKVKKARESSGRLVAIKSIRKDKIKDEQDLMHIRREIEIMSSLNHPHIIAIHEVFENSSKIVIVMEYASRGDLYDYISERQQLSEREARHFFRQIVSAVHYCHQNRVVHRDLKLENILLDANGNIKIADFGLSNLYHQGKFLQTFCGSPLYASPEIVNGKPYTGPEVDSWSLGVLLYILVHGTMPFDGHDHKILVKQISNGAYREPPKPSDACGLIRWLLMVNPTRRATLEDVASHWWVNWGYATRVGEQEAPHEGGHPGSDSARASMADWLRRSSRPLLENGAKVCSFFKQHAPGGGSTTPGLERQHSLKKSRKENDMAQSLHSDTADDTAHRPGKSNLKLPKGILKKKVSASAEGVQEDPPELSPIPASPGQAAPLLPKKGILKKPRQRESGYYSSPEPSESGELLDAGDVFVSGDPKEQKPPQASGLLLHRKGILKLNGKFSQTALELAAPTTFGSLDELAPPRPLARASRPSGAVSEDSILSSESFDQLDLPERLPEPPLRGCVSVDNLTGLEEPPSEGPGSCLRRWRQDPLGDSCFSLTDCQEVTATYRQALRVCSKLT
# [4] = target: LRRK2 (Homo sapiens, UniProt Q5S007)
# [5] = target: CSNK2A1 (Homo sapiens, UniProt P68400)
# [6] = target: RIOK2 (Homo sapiens, UniProt Q9BVS4)
# [7] = target: BMPR1B (Homo sapiens, UniProt O00238)
# Sequence of BMPR1B (O00238 whole entry): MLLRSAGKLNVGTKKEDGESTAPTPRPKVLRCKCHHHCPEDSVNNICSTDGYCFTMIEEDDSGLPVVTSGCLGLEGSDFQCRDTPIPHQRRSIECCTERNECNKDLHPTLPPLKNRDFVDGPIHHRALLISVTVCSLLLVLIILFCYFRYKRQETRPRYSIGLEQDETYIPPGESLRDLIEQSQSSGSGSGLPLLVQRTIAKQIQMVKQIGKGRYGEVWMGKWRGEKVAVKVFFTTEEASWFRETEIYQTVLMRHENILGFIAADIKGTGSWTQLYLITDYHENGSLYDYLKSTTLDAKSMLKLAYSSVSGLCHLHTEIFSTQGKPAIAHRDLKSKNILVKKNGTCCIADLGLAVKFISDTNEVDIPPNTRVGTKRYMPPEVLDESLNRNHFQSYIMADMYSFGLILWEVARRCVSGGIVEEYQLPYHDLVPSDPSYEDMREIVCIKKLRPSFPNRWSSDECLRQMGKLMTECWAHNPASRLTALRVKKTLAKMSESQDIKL
# Sequence of CSNK2A1 (P68400 whole entry): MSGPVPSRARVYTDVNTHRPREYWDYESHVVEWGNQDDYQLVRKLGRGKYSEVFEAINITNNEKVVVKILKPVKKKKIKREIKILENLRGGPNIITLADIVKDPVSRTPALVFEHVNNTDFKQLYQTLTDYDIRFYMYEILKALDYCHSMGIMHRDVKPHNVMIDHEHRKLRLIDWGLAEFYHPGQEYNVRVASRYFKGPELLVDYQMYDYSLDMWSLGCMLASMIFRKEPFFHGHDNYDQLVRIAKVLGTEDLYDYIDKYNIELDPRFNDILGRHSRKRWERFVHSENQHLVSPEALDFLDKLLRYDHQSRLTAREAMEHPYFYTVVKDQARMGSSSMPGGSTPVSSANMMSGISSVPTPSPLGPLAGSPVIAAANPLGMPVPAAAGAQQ
# Sequence of LRRK2 (G2019S) (Q5S007 whole entry G2019S): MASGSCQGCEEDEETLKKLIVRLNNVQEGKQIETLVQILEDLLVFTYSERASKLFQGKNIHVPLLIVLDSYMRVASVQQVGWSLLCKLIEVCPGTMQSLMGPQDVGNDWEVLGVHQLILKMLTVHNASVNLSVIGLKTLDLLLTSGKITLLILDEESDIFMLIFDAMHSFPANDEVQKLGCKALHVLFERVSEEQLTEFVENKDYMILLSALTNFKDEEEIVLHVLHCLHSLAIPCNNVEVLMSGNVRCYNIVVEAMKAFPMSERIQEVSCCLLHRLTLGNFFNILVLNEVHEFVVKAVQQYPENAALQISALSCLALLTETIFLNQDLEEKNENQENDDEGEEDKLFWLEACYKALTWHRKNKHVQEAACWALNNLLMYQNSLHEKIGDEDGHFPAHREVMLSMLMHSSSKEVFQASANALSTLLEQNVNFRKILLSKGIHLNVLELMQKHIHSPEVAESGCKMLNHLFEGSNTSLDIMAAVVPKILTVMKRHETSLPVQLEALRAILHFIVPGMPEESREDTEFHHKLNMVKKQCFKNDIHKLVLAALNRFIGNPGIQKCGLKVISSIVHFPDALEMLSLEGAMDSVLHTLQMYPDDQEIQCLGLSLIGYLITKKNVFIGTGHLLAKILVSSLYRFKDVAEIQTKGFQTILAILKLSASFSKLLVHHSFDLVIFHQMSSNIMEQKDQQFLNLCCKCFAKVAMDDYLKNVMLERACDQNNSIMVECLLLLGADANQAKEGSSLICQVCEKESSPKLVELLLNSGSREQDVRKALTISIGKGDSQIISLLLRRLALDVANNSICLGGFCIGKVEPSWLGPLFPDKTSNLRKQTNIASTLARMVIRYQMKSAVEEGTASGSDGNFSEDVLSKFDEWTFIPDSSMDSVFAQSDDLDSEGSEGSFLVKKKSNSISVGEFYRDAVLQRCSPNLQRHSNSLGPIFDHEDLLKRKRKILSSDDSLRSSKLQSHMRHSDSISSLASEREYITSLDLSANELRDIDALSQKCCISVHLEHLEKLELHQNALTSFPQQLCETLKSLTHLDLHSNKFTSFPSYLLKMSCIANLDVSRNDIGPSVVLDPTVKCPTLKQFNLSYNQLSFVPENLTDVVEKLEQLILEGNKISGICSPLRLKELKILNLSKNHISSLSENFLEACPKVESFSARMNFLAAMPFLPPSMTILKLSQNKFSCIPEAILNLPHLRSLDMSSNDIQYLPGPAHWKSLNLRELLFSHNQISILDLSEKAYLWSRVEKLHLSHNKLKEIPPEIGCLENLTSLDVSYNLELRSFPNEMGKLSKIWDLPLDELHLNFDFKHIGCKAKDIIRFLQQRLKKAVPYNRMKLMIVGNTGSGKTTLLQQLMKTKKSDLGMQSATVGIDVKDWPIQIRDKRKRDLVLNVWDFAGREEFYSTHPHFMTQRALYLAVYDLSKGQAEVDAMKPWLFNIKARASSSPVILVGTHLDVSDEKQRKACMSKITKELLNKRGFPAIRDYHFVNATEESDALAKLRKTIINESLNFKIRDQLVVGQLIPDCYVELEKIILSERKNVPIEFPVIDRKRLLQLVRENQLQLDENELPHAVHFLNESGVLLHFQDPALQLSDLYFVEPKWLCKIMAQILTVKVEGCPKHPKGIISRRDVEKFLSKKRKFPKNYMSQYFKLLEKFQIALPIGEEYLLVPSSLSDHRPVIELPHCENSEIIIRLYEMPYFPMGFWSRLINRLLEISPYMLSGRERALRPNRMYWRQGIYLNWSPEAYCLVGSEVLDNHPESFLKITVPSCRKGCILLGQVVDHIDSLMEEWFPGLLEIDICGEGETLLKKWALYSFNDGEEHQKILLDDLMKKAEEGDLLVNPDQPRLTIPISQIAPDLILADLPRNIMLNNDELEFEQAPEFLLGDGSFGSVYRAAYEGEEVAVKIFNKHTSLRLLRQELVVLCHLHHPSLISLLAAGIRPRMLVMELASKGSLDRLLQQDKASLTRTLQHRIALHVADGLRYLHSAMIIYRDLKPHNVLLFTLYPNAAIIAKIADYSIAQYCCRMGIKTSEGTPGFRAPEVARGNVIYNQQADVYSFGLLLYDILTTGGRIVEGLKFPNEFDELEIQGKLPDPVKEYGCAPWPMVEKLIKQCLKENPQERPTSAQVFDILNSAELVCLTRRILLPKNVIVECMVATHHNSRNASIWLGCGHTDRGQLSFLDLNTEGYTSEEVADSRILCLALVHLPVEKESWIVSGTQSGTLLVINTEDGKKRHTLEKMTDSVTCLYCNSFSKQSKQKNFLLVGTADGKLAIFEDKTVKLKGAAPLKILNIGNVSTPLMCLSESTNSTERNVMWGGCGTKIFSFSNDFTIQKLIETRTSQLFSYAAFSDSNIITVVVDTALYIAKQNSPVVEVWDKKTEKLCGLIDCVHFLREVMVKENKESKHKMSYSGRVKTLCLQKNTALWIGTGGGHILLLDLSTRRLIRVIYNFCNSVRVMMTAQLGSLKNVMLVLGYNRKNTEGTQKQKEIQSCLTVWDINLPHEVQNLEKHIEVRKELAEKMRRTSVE
# Sequence of LRRK2 (Q5S007 whole entry): as the sequence (Q5S007 whole entry G2019S) above, with S2019G counted along it
# Sequence of RIOK2 (Q9BVS4 whole entry): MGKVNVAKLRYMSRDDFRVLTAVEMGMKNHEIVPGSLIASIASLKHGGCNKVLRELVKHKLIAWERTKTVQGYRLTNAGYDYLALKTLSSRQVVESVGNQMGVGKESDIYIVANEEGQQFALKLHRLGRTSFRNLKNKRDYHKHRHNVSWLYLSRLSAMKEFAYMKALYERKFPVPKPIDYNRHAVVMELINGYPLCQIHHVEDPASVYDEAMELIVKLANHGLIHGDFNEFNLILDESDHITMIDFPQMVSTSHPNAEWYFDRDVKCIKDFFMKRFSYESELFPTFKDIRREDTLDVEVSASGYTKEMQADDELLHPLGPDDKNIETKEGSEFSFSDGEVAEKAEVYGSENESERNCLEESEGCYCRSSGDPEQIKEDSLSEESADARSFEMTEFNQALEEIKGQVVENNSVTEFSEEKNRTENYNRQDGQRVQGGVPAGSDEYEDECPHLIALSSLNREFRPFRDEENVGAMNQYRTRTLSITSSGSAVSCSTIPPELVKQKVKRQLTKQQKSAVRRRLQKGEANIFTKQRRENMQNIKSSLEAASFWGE
smiles,measurement,setting,value
"C[C@H](NC(=O)c1c[nH]c2ncc(C3CC3)nc12)C(C)(C)C [A1, UNC-BE4-017]",Compound A1 PoC,[1],7.5%
same,Compound A1 PoC,[2],0.7%
same,Compound A1 PoC,[3],1.2%
same,Compound A1 PoC,[4],2.1%
same,Compound A1 PoC,[5],0%
same,Compound A1 PoC,[6],0%
same,Compound A1 PoC,[7],1.8%
